# According to patent US5399575A, “Pyridine compounds which have useful pharmaceutical activity” (Boehringer Mannheim GmbH, priority 1990, dated 1995):
# System: passive sensitised guinea pig lung parenchyma strips
# Experiment: Inhibition of the antigen-caused constriction of passive sensitised guinea pig lung parenchyma strips in vitro (organ bath)
# Type: cell-based
# Conditions: Cavia porcellus; concentration 10 μM; ovalbumin-caused constriction, 20 min pre-incubation at 37° C.; % reduction of constriction amplitude vs untreated control constrictions; read-out: superfusion inhibition (%)
# Method: Inhibition of the antigen-caused constriction of passive sensitised guinea pig lung parenchyma strips in vitro (organ bath)
# For the in vitro investigation of the compounds according to the invention, the inhibition of the antigen-caused constriction of passive sensitised guinea pig lung parenchyma strips was measured, as described in the following:
# Pribright white guinea pigs were stunned by a neck blow and exsanguinated. The lungs were rinsed substantially free of blood in situ with Krebs buffer, pH 7.4.
# Subsequently, the lungs were removed, cut up into strips (about 20×4×4 mm) and the strips passively sensitised for one hour at room temperature with a 1:50 dilution of a homologous anti-ovalbumin antiserum and then washed 1× with Krebs buffer.
# The antiserum was previously produced according to DAVIES in guinea pigs of the same strain by repeated injection of ovalbumin (2×crystallised) with addition of complete Freund's adjuvant.
# Until its use, the antiserum was stored at -18° C. undiluted.
# Subsequently, the lung strips were suspended individually on an isometric measurement sensor with an initial tension of 1.2 g.
# Thereafter, the baths were filled with Krebs buffer and continously gassed at 37° C. with O2 (95%) and CO2 (5%). The constrictions of the lung strips were recorded on a recorder via an amplifier.
# After 30 minutes acclimatisation phase, histamine control spasms were produced for the recognition of the reaction ability of the organ pieces, washed, subsequently the test substance pre-incubated at 37° C. for 20 minutes and thereafter the ovalbumin-caused constriction initiated.
# The inhibition actions of the compounds according to the invention were expressed as percentage reduction of the constriction amplitude of the "samples with test substance" in relationship to the "untreated control constrictions".
row,SMILES,inhibition at 10 µM [%]
1,"O=C(O)c1ccccc1SCCCCOc1ccc(C=Cc2ccncc2)cc1 [Example 12, 2-{4-{4-[2-(4-Pyridinyl)-ethenyl]-phenoxy}-butylthio}-benzoic acid]",42
2,"O=C(O)c1ccccc1SCCCOc1ccc(CCc2ccncc2)cc1 [Example 14, 2-{3-{4-[2-(4-Pyridinyl)-ethyl]-phenoxy}-propylthio}-benzoic acid]",56
3,"C(=Cc1ccc(OCCCCc2nnn[nH]2)cc1)c1ccncc1 [Example 15, 5-{4-{4-[2-(4-Pyridinyl)-ethenyl]-phenoxy}butyl}-1H-tetrazole]",56
4,O=C(CCCOc1ccc(CCc2ccncc2)cc1)Nc1nnn[nH]1 [Example 18b],32
5,"O=C(CCCCOc1ccccc1C=Cc1ccccn1)Nc1nnn[nH]1 [Example 18c, 5-{2-[2-(2-pyridinyl)-ethenyl]-phenoxy}-valeric acid N-(1H-tetrazol-5-yl)-amide]",33
6,"O=C(CCCCOc1ccccc1CCc1ccccn1)Nc1nnn[nH]1 [Example 18h, 5-{2-[2-(2-pyridinyl)-ethyl]-phenoxy}-valeric acid N-(1H-tetrazol-5-yl)-amide]",53
